# Values quoted from earlier work as cited in patent US20140148378A1, “ANTIBACTERIAL PEPTIDES” (THE REGENTS OF THE UNIVERSITY OF CALIFORNIA, priority 2012, published 2014).
# How the values were obtained:
# [1] = from bioactive peptide databases / literature
# [2] = lactoferricin versus human lactoferrin
Substance,Known activity of overlapping literature bioactive peptide [1],bactericidal effects relative to the parent protein [2]
YQRRPAIAINNPYVPRTYYANPAVVRPHAQIPQRQYLPNSHPPTVVRRPNLHPSF (listed as Homo sapiens) [SEQ ID NO: 504],Antibacterial,–
QELLLNPTHQYPVTQPLAPVHNPISV (listed as Homo sapiens) [SEQ ID NO: 506],Antibacterial,–
lactoferricin,–,10-100 times
QPTIPFFDPQIPK (listed as Homo sapiens) [SEQ ID NO: 505],Immuno-,–
